In ChEMBL document CHEMBL5154928, “Structure-Aided Design, Synthesis, and Biological Evaluation of Potent and Selective Non-Nucleoside Inhibitors Targeting Protein Arginine Methyltransferase 5” (J Med Chem, 2022):

Columns and labels:
[1] = biological target: T1, Histone-lysine N-methyltransferase NSD2 (Homo sapiens, UniProt O96028); experiment: Inhibition of NSD2 (unknown origin) using histone H4 (1 to 21 residues) peptide/SAM as substrate incubated for 210 mins in presence of SAM by AlphaLISA assay
T1 sequence (O96028 whole entry): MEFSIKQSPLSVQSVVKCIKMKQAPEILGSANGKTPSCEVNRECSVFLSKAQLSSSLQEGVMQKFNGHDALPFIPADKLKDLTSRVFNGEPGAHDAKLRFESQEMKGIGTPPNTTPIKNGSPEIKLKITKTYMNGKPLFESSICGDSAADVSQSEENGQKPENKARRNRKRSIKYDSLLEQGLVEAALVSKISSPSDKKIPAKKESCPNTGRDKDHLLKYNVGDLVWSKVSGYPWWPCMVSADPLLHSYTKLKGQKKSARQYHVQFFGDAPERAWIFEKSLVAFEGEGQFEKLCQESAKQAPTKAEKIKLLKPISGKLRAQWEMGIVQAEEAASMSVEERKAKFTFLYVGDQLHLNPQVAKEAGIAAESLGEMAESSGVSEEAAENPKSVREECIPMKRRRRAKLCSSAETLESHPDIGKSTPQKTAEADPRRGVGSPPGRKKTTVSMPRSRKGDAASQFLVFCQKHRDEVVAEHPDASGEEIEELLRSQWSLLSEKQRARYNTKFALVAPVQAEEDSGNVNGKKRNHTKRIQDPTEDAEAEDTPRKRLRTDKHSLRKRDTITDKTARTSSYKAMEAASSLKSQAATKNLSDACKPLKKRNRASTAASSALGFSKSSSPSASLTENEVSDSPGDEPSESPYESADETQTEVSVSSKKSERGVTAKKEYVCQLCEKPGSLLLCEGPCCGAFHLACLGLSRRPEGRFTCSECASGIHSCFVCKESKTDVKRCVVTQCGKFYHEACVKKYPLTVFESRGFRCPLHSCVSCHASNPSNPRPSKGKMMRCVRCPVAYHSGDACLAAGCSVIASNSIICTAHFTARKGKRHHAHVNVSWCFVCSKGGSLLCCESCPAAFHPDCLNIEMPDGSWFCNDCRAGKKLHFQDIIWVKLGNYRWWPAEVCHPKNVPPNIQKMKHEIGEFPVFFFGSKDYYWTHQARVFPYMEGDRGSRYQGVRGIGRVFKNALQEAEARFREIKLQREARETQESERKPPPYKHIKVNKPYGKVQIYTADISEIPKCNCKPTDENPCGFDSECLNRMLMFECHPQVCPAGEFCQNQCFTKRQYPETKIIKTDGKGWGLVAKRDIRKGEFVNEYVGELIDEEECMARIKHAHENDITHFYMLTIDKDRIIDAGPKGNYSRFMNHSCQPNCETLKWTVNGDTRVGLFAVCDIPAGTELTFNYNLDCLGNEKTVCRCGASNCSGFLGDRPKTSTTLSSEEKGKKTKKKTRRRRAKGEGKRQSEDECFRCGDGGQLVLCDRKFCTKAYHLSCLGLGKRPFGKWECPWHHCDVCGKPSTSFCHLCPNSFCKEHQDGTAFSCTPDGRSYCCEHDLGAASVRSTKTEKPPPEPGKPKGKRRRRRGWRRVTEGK

[2] = Half life in Sprague-Dawley rat at 10 mg/kg, po measured for 0.25 to 24 hrs by LC-MS/MS analysis; assay type: ADME, organism-based; details: in vivo, time 0.25-24 hrs

C[C@H](Oc1ccc(-c2cc3c(C4=CCNCC4)ncnc3[nH]2)cc1)c1ccccc1
IC50 [1]: > 20 µM
half-life [2]: 7.51 h
